{"source": "patent US6489535B1", "about": "“Non-mammalian transgenic animal having an adult onset neurodegenerative phenotype” (priority 1999, dated 2002)", "key": {"AON mutant fly strain": {"system": "AON mutant fly strain", "assay": "whole plant or invertebrate", "type": "in vivo, Drosophila melanogaster", "conditions": "for Phenotype AON + E: larva fed .5 μg/ml estrogen, >90% of 100 flies", "protocol": "(§1) Each compound was prepared over a range of dilutions and each was tested for the activity of alleviating the adult onset neurodegeneration condition. The compound dilutions were uptaken by either the larva or adult flies. The compound dilutions were mixed into the nutrient media and this served as the food/water source for either larva or flies. The adult onset neurodegeneration symptoms and their timelines were monitored for each compound dilution and compared to the no treatment control. Compounds examined here included: beta-estradiol, zinc chloride, sodium chloride, water, chocolate, and phosphate buffered saline.\nIn addition, compounds were also tested in the AON mutant fly strain that were known not to influence human AON conditions. Finally, a complex mixture with unknown influence on human AON conditions was tested in the AON mutant fly strain."}, "wild-type adult flies": {"system": "wild-type adult flies", "assay": "Wild-type flies fed estrogen, phenotype by adult age", "type": "in vivo, Drosophila melanogaster", "conditions": "larva fed .5 μg/ml estrogen", "protocol": "as §1"}, "[1]": {"conditions": "Drosophila melanogaster, po, read-out: S increased (S = AON symptom free adult time span)"}}, "note": "Like-named read-outs stand apart in the source and are kept apart here. Throughout, for Phenotype AON + E: key: None = normal adult fly; WC = loss of wing control; WP = wings paralyzed; C = loss of coordination and locomotion capabilities; L = flies stop uptaking liquid; D = death. Throughout, for Phenotype Wt + E: key: None = normal adult fly; WC = loss of wing control; WP = wings paralyzed; C = loss of coordination and locomotion capabilities; L = flies stop uptaking liquid; D = death."}
{"compound": "Cc1c(C)c2c(c(C)c1O)CC[C@@](C)(CCC[C@H](C)CCC[C@H](C)CCCC(C)C)O2", "note": "[Alpha Tocopherol]", "values": [{"measurement": "L.D.", "setting": "AON mutant fly strain; dose 1 mg/ml", "value": "L.D. 30,"}, {"measurement": "D increased (D = life span)", "setting": "AON mutant fly strain; dose 1 mg/ml, escapers", "value": "increased 33%"}, {"measurement": "S increased (S = AON symptom free adult time span)", "setting": "AON mutant fly strain; dose 1 mg/ml, escapers", "value": "200%, D"}]}
{"compound": "CN1[C@@H]2CC[C@H]1C[C@@H](OC(c1ccccc1)c1ccccc1)C2", "note": "[Benztropine]", "values": [{"measurement": "change in vivo at 0.023 µg/mL", "setting": "AON mutant fly strain; [1]", "value": 400, "unit": "%"}, {"measurement": "change in vivo at 0.23 µg/mL", "setting": "AON mutant fly strain; [1]", "value": 300, "unit": "%"}, {"measurement": "change in vivo at 23 µg/mL", "setting": "AON mutant fly strain; [1]", "value": 500, "unit": "%"}, {"measurement": "D increased (D = life span)", "setting": "AON mutant fly strain; dose .000023 mg/ml", "value": 33, "unit": "%"}, {"measurement": "D increased (D = life span)", "setting": "AON mutant fly strain; dose .00023 mg/ml", "value": 17, "unit": "%"}, {"measurement": "L.D., AON class", "setting": "AON mutant fly strain; dose .023 mg/ml, AON class", "value": "L.D. 95,"}, {"measurement": "L.D.", "setting": "AON mutant fly strain; dose .23 mg/ml", "value": "L.D. 100"}]}
{"compound": "CC(C)C[C@H]1C(=O)N2CCC[C@H]2[C@]2(O)O[C@](NC(=O)[C@@H]3C=C4c5cccc6[nH]c(Br)c(c56)C[C@H]4N(C)C3)(C(C)C)C(=O)N12", "note": "[Bromocriptine]", "values": [{"measurement": "change in vivo at 10 µg/mL", "setting": "AON mutant fly strain; Drosophila melanogaster, po, dose .01 mg/ml, read-out: S increased (S = AON symptom free adult time span)", "value": 33, "unit": "%"}, {"measurement": "L.D.", "setting": "AON mutant fly strain; dose .1 mg/ml", "value": "L.D. 100"}]}
{"compound": "CN1C(=O)CN=C(c2ccccc2)c2cc(Cl)ccc21", "note": "[Diazepam]", "values": [{"measurement": "L.D.", "setting": "AON mutant fly strain; AON mutant fly strain, Drosophila melanogaster, in vivo", "value": "L.D. 100"}, {"measurement": "result (effect on AON phenotype)", "setting": "AON mutant fly strain; in vivo", "value": "No Effect"}]}
{"compound": "C[C@]12N[C@H](Cc3ccccc31)c1ccccc12", "note": "[Dizocilipine]", "values": [{"measurement": "S increased (S = AON symptom free adult time span)", "setting": "AON mutant fly strain; dose .00006 mg/ml", "value": 17, "unit": "%"}, {"measurement": "AON symptoms delayed", "setting": "AON mutant fly strain; dose .0006 mg/ml", "value": "delayed 2 days"}, {"measurement": "AON growth", "setting": "AON mutant fly strain; dose .06 mg/ml", "value": "delayed"}, {"measurement": "result (effect on AON phenotype)", "setting": "AON mutant fly strain; dose .06 mg/ml", "value": "No"}, {"measurement": "L.D.", "setting": "AON mutant fly strain; in vivo", "value": "L.D. 100"}]}
{"compound": "N[C@@H](Cc1ccc(O)c(O)c1)C(=O)O", "note": "[Levodopa]", "values": [{"measurement": "change in vivo at 0.15 µg/mL", "setting": "AON mutant fly strain; [1]", "value": 100, "unit": "%"}]}
{"compound": "CCN(CC)C(=O)N[C@H]1C=C2c3cccc4[nH]cc(c34)C[C@H]2N(C)C1", "note": "[Lisuride]", "values": [{"measurement": "change in vivo at 2 µg/mL", "setting": "AON mutant fly strain; Drosophila melanogaster, po, dose .002 mg/ml, read-out: S increased (S = AON symptom free adult time span)", "value": 100, "unit": "%"}, {"measurement": "L.D.", "setting": "AON mutant fly strain; dose 2 mg/ml", "value": "L.D. 100"}, {"measurement": "L.D.", "setting": "AON mutant fly strain; dose .002 mg/ml", "value": "L.D. 60, S"}, {"measurement": "L.D.", "setting": "AON mutant fly strain; dose .02 mg/ml, (no AON flies)", "value": "L.D. 99 (no"}, {"measurement": "L.D.", "setting": "AON mutant fly strain; dose .2 mg/ml", "value": "L.D. 100"}]}
{"compound": "COc1ccc2[nH]cc(CCNC(C)=O)c2c1", "note": "[Melatonin]", "values": [{"measurement": "L.D.", "setting": "AON mutant fly strain; dose 5 mg/ml", "value": "L.D. 100"}, {"measurement": "result (effect on AON phenotype)", "setting": "AON mutant fly strain; dose .0005 mg/ml", "value": "No Effect"}, {"measurement": "result (effect on AON phenotype)", "setting": "AON mutant fly strain; dose .005 mg/ml", "value": "No Effect"}, {"measurement": "result (effect on AON phenotype)", "setting": "AON mutant fly strain; dose .05 mg/ml", "value": "No Effect"}, {"measurement": "result (effect on AON phenotype)", "setting": "AON mutant fly strain; dose .5 mg/ml", "value": "No Effect"}]}
{"compound": "NC(=O)c1cccnc1", "note": "[Nicotinamide]", "values": [{"measurement": "change in vivo at 5000 µg/mL", "setting": "AON mutant fly strain; [1]", "value": 100, "unit": "%"}, {"measurement": "L.D.", "setting": "AON mutant fly strain; dose 5 mg/ml", "value": "L.D. 90, S"}]}
{"compound": "CCCn1cnc2c1c(=O)n(CCCCC(C)=O)c(=O)n2C", "note": "[Propentofylline]", "values": [{"measurement": "change in vivo at 5000 µg/mL", "setting": "AON mutant fly strain; [1]", "value": 200, "unit": "%"}, {"measurement": "L.D.", "setting": "AON mutant fly strain; dose 5 mg/ml", "value": "L.D. 80,"}, {"measurement": "D increased (D = life span)", "setting": "AON mutant fly strain; dose 5 mg/ml, escapers", "value": 17, "unit": "%"}]}
{"compound": "Nc1nc2ccc(OC(F)(F)F)cc2s1", "note": "[Riluzole]", "values": [{"measurement": "change in vivo at 10 µg/mL", "setting": "AON mutant fly strain; [1]", "value": 100, "unit": "%"}, {"measurement": "D increased (D = life span)", "setting": "AON mutant fly strain; dose .01 mg/ml", "value": "increased 17%"}]}
{"compound": "C#CCN(C)[C@H](C)Cc1ccccc1", "note": "[Selegiline]", "values": [{"measurement": "change in vivo at 0.2 µg/mL", "setting": "AON mutant fly strain; Drosophila melanogaster, po, dose .0002 mg/ml, read-out: S increased (S = AON symptom free adult time span)", "value": 200, "unit": "%"}, {"measurement": "change in vivo at 20 µg/mL", "setting": "AON mutant fly strain; Drosophila melanogaster, po, dose .02 mg/ml, read-out: S increased (S = AON symptom free adult time span)", "value": 100, "unit": "%"}, {"measurement": "L.D.", "setting": "AON mutant fly strain; dose 2 mg/ml", "value": "L.D. 100"}, {"measurement": "L.D., AON class only", "setting": "AON mutant fly strain; dose .2 mg/ml, AON class only", "value": "only, L.D. 95,"}, {"measurement": "result (effect on AON phenotype)", "setting": "AON mutant fly strain; dose .2 mg/ml, escapers", "value": "No Effect"}]}
{"compound": "Nc1c2c(nc3ccccc13)CCCC2", "note": "[Tacrine]", "values": [{"measurement": "change in vivo at 0.5 µg/mL", "setting": "AON mutant fly strain; [1]", "value": 100, "unit": "%"}]}
{"compound": "OC(CCN1CCCCC1)(c1ccccc1)C1CCCCC1", "note": "(centres unmarked) [Trihexyphenidyl]", "values": [{"measurement": "change in vivo at 100 µg/mL", "setting": "AON mutant fly strain; [1]", "value": "~25", "unit": "%"}, {"measurement": "change in vivo at 1000 µg/mL", "setting": "AON mutant fly strain; [1]", "value": 33, "unit": "%"}]}
{"compound": "[Cl-].[Cl-].[Zn+2]", "note": "[Zinc, zinc chloride]", "values": [{"measurement": "effect on the AON condition", "setting": "AON mutant fly strain; higher concentrations, 50-100 μgrams/ml of nutrient media, oral", "value": "exacerbated the AON condition"}, {"measurement": "effect on the mutant AON fly strain", "setting": "AON mutant fly strain; low concentrations, 10-20 μgrams/ml of nutrient media, oral", "value": "no effect was observed"}]}
{"compound": "CCCN1C[C@H](CSC)C[C@@H]2c3cccc4[nH]cc(c34)C[C@H]21", "note": "[pergolide]", "values": [{"measurement": "effect in the AON fly drug screening", "setting": "AON mutant fly strain; dose not stated", "value": "did not show any effect"}]}
{"compound": "[Cl-].[Na+]", "note": "[sodium chloride]", "values": [{"measurement": "effect on the AON phenotype in the mutant fly strain", "setting": "AON mutant fly strain; oral, dose not stated", "value": "no effect"}]}
{"compound": "beta-estradiol [Estrogen]", "values": [{"measurement": "Phenotype Wt + E", "setting": "wild-type adult flies; age of adult 0-1 hours", "value": "None"}, {"measurement": "Phenotype Wt + E", "setting": "wild-type adult flies; age of adult 1-3 hours", "value": "None"}, {"measurement": "Phenotype Wt + E", "setting": "wild-type adult flies; age of adult 3-24 hours", "value": "None"}, {"measurement": "Phenotype Wt + E", "setting": "wild-type adult flies; age of adult 24-36 hours", "value": "None"}, {"measurement": "Phenotype Wt + E", "setting": "wild-type adult flies; age of adult 36-72 hours", "value": "None"}, {"measurement": "Phenotype Wt + E", "setting": "wild-type adult flies; age of adult 72-144 hours", "value": "None"}, {"measurement": "Phenotype Wt + E", "setting": "wild-type adult flies; age of adult 144+ hours", "value": "None"}, {"measurement": "effect on the AON condition in the mutant fly strain", "setting": "AON mutant fly strain; administered orally", "value": "alleviates the AON condition"}, {"measurement": "Phenotype AON + E", "setting": "AON mutant fly strain; age of adult 0-1 hours", "value": "None"}, {"measurement": "Phenotype AON + E", "setting": "AON mutant fly strain; age of adult 1-3 hours", "value": "None"}, {"measurement": "D increased (D = life span)", "setting": "AON mutant fly strain; dose 5 mg/ml", "value": "increased 68%"}, {"measurement": "S increased (S = AON symptom free adult time span)", "setting": "AON mutant fly strain; dose 5 mg/ml", "value": "100%, D"}, {"measurement": "S increased (S = AON symptom free adult time span)", "setting": "AON mutant fly strain; dose .5 mg/ml", "value": 200, "unit": "%"}]}
